Test [1] concerns the target T1, DotBL (Legionella pneumophila, UniProt O52185).
T1 construct: gene dotB

Test [2] addresses DotB from the dot/icm system encoded by the L. pneumophila genome (DotBL), wild type (L. pneumophila) (UniProt Q5ZS43). Description: SEC-MALS. (SEC sorts molecules by how far they enter the pores of the column.)

Turning to `Nc1ncnc2c1ncn2[C@@H]1O[C@H](COP(=O)(O)OP(=O)(O)NP(=O)(O)O)[C@@H](O)[C@H]1O` [AMP–PNP], the “malachite green phosphate release, inhibition after 10 min preincubation” value in test [1] is “the analogue binds and competes with ATP resulting in an inhibition of phosphate release”.

The term stoichiometry N denotes the number of molecules, sites or subunits per partner or assembly. As for “DotB from the dot/icm system encoded by the L. pneumophila genome (DotBL), wild type (from UniProt Q5ZS43 1-387) (enzyme)”, the stoichiometry N in test [2] amounted to 6.

(Values after PMC6153414 (Protein Science : A Publication of the Protein Society, 2018).)
